Results from patent US20130225641A1, “ANTICANCER COMPOUNDS AND PREPARATION METHODS THEREOF” (priority 2010, published 2013).

What was measured:
G-361 = experiment: MTT cytotoxicity, G-361; assay type: cell-based; conditions: Homo sapiens, G-361, Skin (melanoma), 72 hrs, read-out: LC50 (the source's name)
Method: (§1) The cytotoxicity of ZTP and ZTQ was analyzed by using human tumor cell lines. Human tumor cell lines were purchased from ATCC and NCI, and cultured in DMEM medium containing 10% FBS at 37° C. in 5% CO2 in an incubator. The cells grown to confluence were used for cytotoxicity analysis. The cells were digested with trypsin, washed with the culture medium, and then counted. 33 tumor cell lines were cultured. The cells were seeded at a density of 3000-6000 cells/well in a 96-well plate and incubated for 16-24 hrs. Then, various concentrations of ZTP or ZTQ dissolved in DMSO were added, and cultured for 72 hrs. The drug-treated cells and control cells were analyzed by MTT.

[1] = system: human liver cancer cells (HepG3B); experiment: Transplantation model of human liver cancer (HepG3B) in nude mice; assay type: in vivo, nude mice (nu/nu); conditions: HepG3B subcutaneous in nude mice; oral daily 5 days/week, 3 weeks; ZTP 30 mg/kg, ZTQ 60 mg/kg; lower = stronger
Method: (§2) T-cell deficient nude mice (nu/nu) of 6 weeks old were purchased from Charles River Laboratory, and housed and treated in a sterile environment following Institutional Animal Care & Use Committee Program. 48 mice were respectively subcutaneously inoculated on ribbed belly with 5×10^6 human liver cancer cells (HepG3B), human lung caner cells (NCI-H23), and human colon cancer cells (HCT-116) suspended in 0.2 ml HBSS/matrigel (50:50, V/V). When the tumor grew to have an average diameter of 7-8 mm and a volume of about 100-200 mm^3, 24 mice were picked up, and assigned to treatment groups (16 animals/2 groups), and a control group (8 animals). The 2 treatment groups were administered with the compounds ZTP and ZTQ dissolved in 15% Captsol respectively at a dose of 30 mg/kg and 60 mg/kg, and the control group only received an excipient (15% Captsol).
(§3) The same number of mice of each type was assigned to the control group and the treatment groups with the compounds ZTP and ZTQ respectively.
(§4) The dose schedule of the test compounds in the tumor transplanted nude mice was as follows: the compounds ZTP and ZTQ dissolved in 15% Captsol were daily orally administered as a 200 μl solution containing 0.75 mg of ZTP and 1.5 mg of ZTQ for 5 days/week over 3 consecutive weeks, followed by one-week break; and the control group was only administered with 200 μl of the placebo (15% Captsol) for 3 weeks, followed by 1 week of break. The two groups of animals were housed separately, and allowed to free access to food.
(§5) Evaluation of antitumor effect: the tumor size was measured every 3 or 4 days. The tumor volume was calculated using the equation below: […], in which a denotes the width (the shorter diameter), and b denotes the length (the longer diameter). Relative tumor volume (RTV) of each tumor refers to the ratio of the volume at a specified time to that at the beginning of the treatment. The average RTV for each treatment group was calculated. The antitumor activity was determined by calculating the tumor growth inhibition using a formula below. […]

AU-565 = experiment: MTT cytotoxicity, AU-565; assay type: cell-based; conditions: Homo sapiens, AU565, AU-565, Breast, 72 hrs, read-out: LC50 (the source's name)
Method: as §1

[2] = MTT cytotoxicity, MEF normal mouse fibroblast; assay type: cell-based; conditions: MEF normal mouse fibroblasts; MEF, Normal mouse fibroblast; 72 hrs, MTT; read-out: LC50
Method: [Worded in the source for another organism; this organism is reported under the same test.] as §1

MEF = experiment: MTT cytotoxicity, MEF normal mouse fibroblast; assay type: cell-based; conditions: cells still grow well at a concentration up to 30 μm
Method: [Worded in the source for another organism; this organism is reported under the same test.] as §1

ACHN = experiment: MTT cytotoxicity, ACHN; assay type: cell-based; conditions: Homo sapiens, Renal, 72 hrs, read-out: LC50 (the source's name)
Method: as §1

SKOV3 = experiment: MTT cytotoxicity, SKOV3; assay type: cell-based; conditions: Homo sapiens, SK-OV-3, SKOV3, Ovarian, 72 hrs, read-out: LC50 (the source's name)
Method: as §1

[3] = system: human lung cancer cells (NCI-H23); experiment: Transplantation model of human lung cancer (NCI-H23) in nude mice; assay type: in vivo, nude mice (nu/nu); conditions: NCI-H23 subcutaneous in nude mice; oral daily 5 days/week, 3 weeks; ZTP 30 mg/kg, ZTQ 60 mg/kg; lower = stronger
Method: as §2, §3, §4, §5

HCT-116 = experiment: MTT cytotoxicity, HCT-116; assay type: cell-based; conditions: Homo sapiens, HCT-116, Colonic, 72 hrs, read-out: LC50 (the source's name)
Method: as §1

HT29 = experiment: MTT cytotoxicity, HT29; assay type: cell-based; conditions: Homo sapiens, HT-29, HT29, Colonic, 72 hrs, read-out: LC50 (the source's name)
Method: as §1

MCF-7 = experiment: MTT cytotoxicity, MCF-7; assay type: cell-based; conditions: Homo sapiens, MCF7, MCF-7, Breast, 72 hrs, read-out: LC50 (the source's name)
Method: as §1

CCL-247 = experiment: MTT cytotoxicity, CCL-247; assay type: cell-based; conditions: Homo sapiens, CCL-247, Colonic, 72 hrs, read-out: LC50 (the source's name)
Method: as §1

[4] = Acute toxicity studies in mice; assay type: in vivo; conditions: for death of test mice: single dose of 500 mg/kg and divided doses of 100 mg/kg
From the text: After tests, the mice were sacrificed for pathological analysis.

D145 = experiment: MTT cytotoxicity, D145; assay type: cell-based; conditions: Homo sapiens, D145, Prostatic, 72 hrs, read-out: LC50 (the source's name)
Method: as §1

[5] = MTT cytotoxicity, MCF-10a normal mammary epithelial cell; assay type: cell-based, human; conditions: human, MCF-10a normal mammary epithelial cells; MCF-10a, Normal mammary epithelial cell; 72 hrs, MTT; read-out: LC50
Method: [Worded in the source for another cell line; this cell line is reported under the same test.] as §1

MCF-10a = experiment: as above; assay type: cell-based, human; conditions: cells still grow well at a concentration up to 30 μm
Method: [Worded in the source for another cell line; this cell line is reported under the same test.] as §1

Widr = experiment: MTT cytotoxicity, Widr; assay type: cell-based; conditions: Homo sapiens, Colonic, 72 hrs, read-out: LC50 (the source's name)
Method: as §1

[6] = system: human colon cancer cells (HCT-116); experiment: Transplantation model of human colon cancer (HCT-116) in nude mice; assay type: in vivo, nude mice (nu/nu); conditions: HCT-116 subcutaneous in nude mice; oral daily 5 days/week, 3 weeks; ZTP 30 mg/kg, ZTQ 60 mg/kg; lower = stronger
Method: as §2, §3, §4, §5

[7] = divided doses of 100 mg/kg, observed 4 weeks
[8] = single dose of 500 mg/kg, observed 1 week

| Compound | CC50 (G-361) [nM] | TGI (T/C×100) [1] [%] | CC50 (AU-565) [nM] | CC50 at 72 h [2] [nM] | susceptibility of normal mouse fibroblasts (MEFs) (MEF) | CC50 (ACHN) [nM] | CC50 (SKOV3) [nM] | TGI (T/C×100) [3] [%] | CC50 (HCT-116) [nM] | CC50 (HT29) [nM] | CC50 (MCF-7) [nM] | CC50 (CCL-247) [nM] | acute toxicity [4, 7] | death of test mice [4] | acute toxicity [4, 8] | CC50 (D145) [nM] | CC50 at 72 h [5] [nM] | susceptibility of normal human mammary epithelial cells (MCF-10a) (MCF-10a) | CC50 (Widr) [nM] | TGI (T/C×100) [6] [%] |
| --- | --- | --- | --- | --- | --- | --- | --- | --- | --- | --- | --- | --- | --- | --- | --- | --- | --- | --- | --- | --- |
| CNC(=O)c1cc(Oc2ccc(NC(=S)Nc3ccc(Cl)c(C(F)(F)F)c3)cc2)ccn1 [ZTP, N-[4-chloro-3-(trifluoromethyl)phenyl]-[4-(N-methyl-formamide)(4-pyridyloxy)phenyl]-thiourea] | 1910 | 13 | 1890 | > 30000 | insusceptible | 1610 | 1190 | 10 | 870 | 1190 | 2210 | 2410 | no obvious toxicity | no death occurs | no obvious toxicity | 1590 | > 30000 | insusceptible | 950 | 29.2 |
| CNC(=O)c1cc(Sc2ccc(NC(=S)Nc3ccc(Cl)c(C(F)(F)F)c3)cc2)ccn1 [ZTQ, N-[4-chloro-3-(trifluoromethyl)phenyl]-[4-(N-methyl-formamide)(4-pyridylthio)phenyl]-thiourea] | 1360 | 1.75 | 1370 | > 30000 | insusceptible | 1210 | 980 | 9.21 | 760 | 920 | 1700 | 1700 | no obvious toxicity | no death occurs | no obvious toxicity | 1230 | > 30000 | insusceptible | 810 | 6.45 |
